The results in this text go back to PubChem BioAssay (NCI).

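Method: 48-hour compound exposure of cells in 96-well plates, five concentrations, linear interpolation of endpoints. TGI denotes the concentration required for complete inhibition of growth.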

Holding throughout (assay): inhibition of tumour cell growth, NCI panel, 48 h
Assay [1] deals with A498 renal.
For assay [2], the system named is CCRF-CEM leukemia.
Assay [3] deals with DU-145 prostate.
The subject of assay [4] is HL-60(TB) leukemia.
In assay [5] the test system is HOP-62 NSCLC.
Assay [6] relates to HS 578T breast.
The test system of assay [7] is MALME-3M melanoma.
Assay [8] deals with MDA-N.
For assay [9], the system named is NCI-H226 lung.
Assay [10] concerns NCI-H23 lung.
Assay [11] deals with OVCAR-4 ovarian.
In assay [12] the test system is RPMI-8226 leukemia.
In assay [13] the test system is SF-268 CNS.
Assay [14] has as its system SK-MEL-28 melanoma.
For assay [15], the system named is SK-MEL-5 melanoma.
Assay [16] relates to SNB-75 CNS.
Assay [17] concerns TK-10 renal.
Assay [18] concerns UO-31 renal.

With `O=C(O)CC(C(=O)O)c1ccccc1[N+](=O)[O-]` (stereo not drawn), the TGI in assay [1], in assay [2], in assay [3], in assay [4], in assay [5] and in [6] was above 100 µM in each case. The TGI in [7], in [8], in assay [9], in assay [10], in assay [11] and in [12] was above 100 µM throughout. For the same molecule, the TGI in assay [13], in assay [14], in [15], in assay [16], in assay [17] and in assay [18] was above 100 µM each time.

As to `Cc1cc(-c2ccc(C(=O)O)[nH]2)on1`, the TGI in assay [1] is above 100 µM; in [3] it was above 100 µM; in assay [5], above 100 µM; in assay [6], above 100 µM; in assay [7], above 100 µM; in [8], 23.7 µM. Besides, the TGI in assay [10], in assay [11], in assay [12], in assay [13], in assay [14] and in assay [15] was above 100 µM each time. Further, the TGI in assay [16], in assay [17] and in [18] was above 100 µM in each case.

Consider `Cc1[nH]c2ncn3nc(C(Cl)(Cl)Cl)nc3c2c1Cc1ccccc1`, for which the TGI in assay [1], in assay [2], in assay [3], in assay [4], in [5] and in [6] was above 100 µM throughout. The TGI in [7], in assay [8], in assay [9], in assay [10], in [11] and in assay [12] was above 100 µM each time. In addition, the TGI is above 100 µM in assay [13]; above 100 µM in assay [14]; above 100 µM in assay [15]; above 100 µM in assay [16]; above 100 µM in [17]; 23.3 µM in [18].

Take `CCOC(=O)c1cc2cc(N(C(C)=O)C(C)=O)ccc2s1`: the TGI was 35.1 µM in assay [1]; above 100 µM in assay [2]; above 100 µM in assay [3]; 39.2 µM in assay [4]; above 100 µM in assay [5]; 37.6 µM in assay [6]. The TGI in [7] was 46.1 µM; in assay [8], above 100 µM; in assay [9], 47.8 µM; in assay [10], above 100 µM; in assay [11], above 100 µM; in [12] it was 45.3 µM. Moreover, the TGI in assay [13] was 80.6 µM; in [14] it was above 100 µM; in assay [15], 65 µM; in assay [16], 39.9 µM; in assay [17], above 100 µM; in assay [18], above 100 µM.

As to `Cc1ccc(-c2c(C#N)c(-c3ccc(Cl)cc3)c(C#N)c(=O)n2NS(=O)(=O)c2ccccc2)cc1`, the TGI in assay [1], in [2], in assay [4], in assay [5], in assay [6] and in assay [7] was above 100 µM in each case. For the same molecule, the TGI was above 100 µM in [8]; above 100 µM in [9]; above 100 µM in [11]; 51.6 µM in [12]; above 100 µM in assay [13]; above 100 µM in [14]. Besides, the TGI in [15], in assay [16] and in assay [17] was above 100 µM throughout.

With `O=c1c(O)c(-c2ccc(O)cc2O)oc2cc(O)cc(O)c12`, the TGI in assay [2], in assay [3], in assay [4], in [5], in assay [6] and in [7] was above 100 µM each time. For the same molecule, the TGI in [8], in assay [9], in assay [10], in assay [11], in [13] and in assay [14] was above 100 µM in each case. The TGI in assay [15], in assay [16], in assay [17] and in assay [18] was above 100 µM throughout.

As for `CNc1ncnc(Sc2nc(N)nc3nc[nH]c23)c1[N+](=O)[O-]`, the TGI was above 100 µM in assay [1]; 0.892 µM in assay [2]; above 100 µM in assay [3]; 6.7 µM in [4]; above 100 µM in assay [5]; above 43.9 µM in assay [6]. The TGI is 18.9 µM in [7]; 14.9 µM in [8]; above 100 µM in assay [9]; 13.9 µM in [10]; 18.7 µM in [11]; 1.79 µM in [12]. Further, the TGI in assay [13] is above 36.5 µM; in [14] it was 22.2 µM; in [15], 13.4 µM; in [16], 2.83 µM; in [17], 0.941 µM; in [18], 13.9 µM.

For `CN(C)CCCNc1c(O)c2c(c(O)c1Cl)C(=O)C=CC2=O`, the TGI in assay [1] is above 10 µM; in assay [2] it was 5.7 µM; in [3], 3.27 µM; in [5] it was 7.87 µM; in assay [6], 3.65 µM; in assay [7], 3.25 µM. Also, the TGI in [8] was 6.38 µM; in assay [9] it was above 10 µM; in assay [10] it was 3.22 µM; in assay [11] it was 2.82 µM; in assay [14] it was 2.85 µM; in [15], 2.82 µM. Further, the TGI in assay [16], in assay [17] and in [18] was above 10 µM throughout.
